In US7521239B2, “Photochemical internalization for virus-mediated molecule delivery into the cyosol” (priority 2000, dated 2009):

Legend:
[1] = test system: HCT 116 adenocarcinoma cells; assay: MTT cell survival after PCI-induced transduction with AdV-TK and ganciclovir; format: cell-based, human
Procedure: HCT 116 adenocarcinoma cells were infected with an adenovirus gene therapy vector encoding the HSV-tk gene (AdV-TK) and subjected to PCI-treatment. Conditions for infection were as described under “Experimental protocols” (MOI=5). 2 days after infection, different concentrations of ganciclovir (GCV) was added, and the cells were incubated further for 3 days before analysis of cell survival by the MTT method. This method is based on reduction of a water-soluble tetrazolium salt (MTT) to a purple, insoluble formazan product by mitochondrial dehydrogenases present in living, metabolically active cells. One ml medium containing […] is added to the cells, followed by 4 h incubation (37° C., 5% v/v CO2). The resulting formazan crystals are dissolved by adding 200 μl isopropanol (Sigma, Mo., USA) per well. The solution is transferred to a 96 wells plate which is read by a Multiskan EX microplate reader (Labsystems, Finland) with a 570 nm bandpass filter.

[2] = test system: human WiDr adenocarcinoma cells; assay: X-gal staining of photochemically transduced WiDr cells; format: cell-based; details: AlPcS2a and light, no adenovirus
Procedure: 50 000 cells per well were seeded in 6-well plates (Costar,) and incubated overnight at 37° C. 1 ml medium containing […] AlPcS2a (Phorphyrin Products, Logan, Utah) was added, the cells were incubated for 18 h at 37° C., washed three times with medium and incubated for another 3 h at 37° C. The medium was removed and 200 μl of AdHCMV-lacZ was added. After incubation for 30 min at 37° C., 2 ml medium was added and the cells were incubated for 30 min before exposure to red light (Phillips TL 20 W/09, filtered through a Cinemoid 35 filter, with a light intensity reaching the cells of 13.5 W/m2). Before analysis of β-galactosidase activity the cells were incubated at 37° C. for two days.
For X-gal (5-bromo-4 chloro 3 indolyl-β-D-galactopyranoside) staining the medium was discarded, 1 ml of fixative solution (0,05% glutaraldehyde in PBS) was added and the cells were incubated at room temperature for 15 min. The fixative solution was discarded and the cells were washed three times in PBS at room temperature (second rinse was for 10 min, first and third rinses were performed quickly). 1 ml X-gal solution (5 mM K3Fe(CN)6, 5 mM K4Fe(CN)6, 1 mM MgCl2, 1 mg/ml X-gal) was added and the cells were incubated for 4 h to overnight at 37° C. and observed by microscopy (100× magnification) using an Axiovert S100 microscope (Zeiss) with an MC100 Spot camera (Zeiss).

[3] = test system: HCT 116 cells; assay: Flow cytometry of β-galactosidase transduction in HCT 116 cells (AlPcS2a, red light); format: cell-based, human
Procedure: (§1) HCT 116 and WiDr human colon carcinoma cells were obtained from American Type Culture Collection (ATCC nos. CCL-247 and CCL-218, respectively). Cells were cultured in RPMI 1640 medium containing 10% fetal calf serum, 100 U/ml penicillin, […] and 2 mM glutamine (all Gibco BRL, Paisley, UK) at 37° C. in 5% CO2 atmosphere.
(§2) The recombinant adenovirus AdHCMV-lacZ encoding the E. coli lacZ gene controlled by the human cytomegalovirus promoter was obtained by homologous recombination using the pJM17 system in 293 cells (Addison et al., 1997, J. Gen. Virol. 78: 1653-61). Recombinant vectors were plaque purified, grown to high titer in 293 cells and purified by CsCl banding (Hitt et al., 1995, Methods Mol. Genet. 7:13-30). The virus-solution was diluted in PBS containing 0.68 mM CaCl2 and 0.5 mM MgCl2 to the MOIs employed in the different experiments. […]
(§3) The cells were trypsinised, centrifuged, resuspended in 25 ml medium and incubated for 5 min at 37° C. […] The samples were kept on ice for 30-60 min, filtered through a […] mesh nylon filter and analyzed in a FACS-Calibur flow cytometer (Becton Dickinson). […] Fluorescein-fluorescence was measured through a 510-530 nm filter after excitation with an argon laser (15 mW, 488 nm). […] The data were analyzed with the CELLQuest Software (Becton Dickinson).

[4] = test system: WiDr cells; assay: Flow cytometry of β-galactosidase transduction in WiDr cells (AlPcS2a, red light); format: cell-based, human; details: photochemical treatment alone (Ad−, S+)
Procedure: as §1, §2, §3

Compound | GCV-mediated cell killing (cell survival, MTT) ([1]; control: photosensitizer + GCV, no AdV-TK) | β-galactosidase expressing cells (X-gal staining, microscopy) [2] | percentage of β-galactosidase positive cells ([3]; Ad−, S+, 8 min light) | mean fluorescence in non-infected cells ([3]; photochemical treatment (AlPcS2a + light), no adenovirus) | change in percentage of positive cells [4] | GCV-mediated cell killing (cell survival, MTT) ([1]; control: only photosensitizer treatment)
Nc1nc(O)c2ncn(COC(CO)CO)c2n1 [GCV, ganciclovir] | no such effect | – | – | – | – | –
aluminum phthalocyanine with 2 sulfonate groups on adjacent rings [AlPcS2a] | – | No positive cells | 0.4% | 12 RFU | did not significantly change | no such effect
